Assay results from ChEMBL document CHEMBL4673225, “Highly Selective PTK2 Proteolysis Targeting Chimeras to Probe Focal Adhesion Kinase Scaffolding Functions” (J Med Chem, 2019).
Activity calls are given as the source filed them. The calls are words filed in the database; no cut-off is given here.

How the values were obtained:
[1] = molecular target: T1, von Hippel-Lindau disease tumor suppressor/Focal adhesion kinase 1 (Homo sapiens, UniProt Q05397+P40337); experiment: Protac activity at VHL/PTK2 in human HepG2 cells assessed as induction of PTK2 degradation incubated for 18 hrs by protein capillary electrophoresis method; format: cell-based
Target sequence in this assay (Q05397 whole entry): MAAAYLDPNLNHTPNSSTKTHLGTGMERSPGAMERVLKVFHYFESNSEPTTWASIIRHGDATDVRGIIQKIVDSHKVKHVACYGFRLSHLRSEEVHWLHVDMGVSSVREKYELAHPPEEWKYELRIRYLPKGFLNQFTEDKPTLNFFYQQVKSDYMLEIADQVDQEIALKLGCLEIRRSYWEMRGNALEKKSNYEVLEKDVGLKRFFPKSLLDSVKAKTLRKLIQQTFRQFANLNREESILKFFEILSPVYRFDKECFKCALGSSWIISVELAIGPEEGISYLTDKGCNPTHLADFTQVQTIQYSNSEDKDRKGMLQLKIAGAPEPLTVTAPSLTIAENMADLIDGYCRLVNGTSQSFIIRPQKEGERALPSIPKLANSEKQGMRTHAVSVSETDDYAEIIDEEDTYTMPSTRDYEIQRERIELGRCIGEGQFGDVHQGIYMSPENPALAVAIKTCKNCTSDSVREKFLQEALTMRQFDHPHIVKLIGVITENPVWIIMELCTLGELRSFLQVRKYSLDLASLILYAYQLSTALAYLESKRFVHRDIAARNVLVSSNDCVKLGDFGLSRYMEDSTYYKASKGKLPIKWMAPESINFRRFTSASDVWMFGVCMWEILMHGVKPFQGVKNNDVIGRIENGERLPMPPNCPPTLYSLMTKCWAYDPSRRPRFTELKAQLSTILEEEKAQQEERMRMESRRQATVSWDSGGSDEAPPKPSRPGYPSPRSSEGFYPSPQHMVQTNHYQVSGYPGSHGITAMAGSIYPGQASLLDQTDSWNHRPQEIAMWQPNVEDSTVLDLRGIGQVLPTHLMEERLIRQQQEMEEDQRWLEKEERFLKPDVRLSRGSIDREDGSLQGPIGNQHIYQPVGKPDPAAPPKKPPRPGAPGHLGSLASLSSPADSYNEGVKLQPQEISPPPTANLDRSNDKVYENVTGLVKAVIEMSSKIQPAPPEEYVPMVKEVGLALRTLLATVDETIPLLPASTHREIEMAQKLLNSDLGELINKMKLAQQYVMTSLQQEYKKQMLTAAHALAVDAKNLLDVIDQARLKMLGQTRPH
Target sequence in this assay (P40337 whole entry): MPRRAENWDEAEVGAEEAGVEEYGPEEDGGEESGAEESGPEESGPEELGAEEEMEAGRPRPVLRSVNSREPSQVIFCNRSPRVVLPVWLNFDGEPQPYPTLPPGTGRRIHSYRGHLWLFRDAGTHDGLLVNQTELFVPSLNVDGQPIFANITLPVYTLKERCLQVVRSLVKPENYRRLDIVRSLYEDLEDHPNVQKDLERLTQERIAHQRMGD

[2] = molecular target: T1, von Hippel-Lindau disease tumor suppressor/Focal adhesion kinase 1; experiment: Protac activity at VHL/PTK2 in human A549 cells assessed as induction of PTK2 degradation incubated for 18 hrs by protein capillary electrophoresis method; format: cell-based
Target sequence in this assay (Q05397 whole entry): as the sequence (Q05397 whole entry) above
Target sequence in this assay (P40337 whole entry): as the sequence (P40337 whole entry) above

[3] = molecular target: T1, von Hippel-Lindau disease tumor suppressor/Focal adhesion kinase 1; experiment: Protac activity at VHL/PTK2 in human A549 cells assessed as induction of PTK2 degradation at 1 to 100000 nM incubated for 18 hrs in presence of NEDD8 inhibitor […] by protein capillary electrophoresis method; format: cell-based; conditions: dose 1-100000 nM
Target sequence in this assay (P40337 whole entry partner): as the sequence (P40337 whole entry) above
Target sequence in this assay (Q05397 2-1052 limits assumed): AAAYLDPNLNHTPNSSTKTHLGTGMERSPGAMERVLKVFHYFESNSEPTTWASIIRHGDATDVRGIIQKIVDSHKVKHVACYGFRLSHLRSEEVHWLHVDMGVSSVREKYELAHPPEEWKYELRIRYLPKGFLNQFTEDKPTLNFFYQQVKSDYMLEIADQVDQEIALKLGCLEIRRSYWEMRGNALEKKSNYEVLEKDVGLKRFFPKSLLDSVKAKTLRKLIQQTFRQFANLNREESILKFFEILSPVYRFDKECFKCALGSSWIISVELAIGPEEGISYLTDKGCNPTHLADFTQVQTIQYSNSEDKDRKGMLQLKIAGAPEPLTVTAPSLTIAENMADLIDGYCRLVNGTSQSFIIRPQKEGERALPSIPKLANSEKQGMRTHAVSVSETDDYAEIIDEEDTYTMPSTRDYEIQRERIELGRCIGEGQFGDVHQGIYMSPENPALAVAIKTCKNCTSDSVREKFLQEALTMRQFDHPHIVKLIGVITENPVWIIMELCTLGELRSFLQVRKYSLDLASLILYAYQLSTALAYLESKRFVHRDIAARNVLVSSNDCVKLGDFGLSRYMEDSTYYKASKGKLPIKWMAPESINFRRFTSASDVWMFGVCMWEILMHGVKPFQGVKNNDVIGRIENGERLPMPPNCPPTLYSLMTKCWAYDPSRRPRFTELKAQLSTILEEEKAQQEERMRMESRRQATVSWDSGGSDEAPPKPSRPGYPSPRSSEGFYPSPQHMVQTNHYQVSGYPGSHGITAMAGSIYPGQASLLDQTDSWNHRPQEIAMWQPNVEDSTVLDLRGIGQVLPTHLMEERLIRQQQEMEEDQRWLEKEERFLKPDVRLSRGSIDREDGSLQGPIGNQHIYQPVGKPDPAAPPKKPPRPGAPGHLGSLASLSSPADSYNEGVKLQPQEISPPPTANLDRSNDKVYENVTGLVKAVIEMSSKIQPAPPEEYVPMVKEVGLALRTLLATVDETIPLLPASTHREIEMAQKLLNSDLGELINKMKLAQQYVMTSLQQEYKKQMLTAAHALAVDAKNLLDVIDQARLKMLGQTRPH

[4] = molecular target: T1, von Hippel-Lindau disease tumor suppressor/Focal adhesion kinase 1; experiment: Protac activity at VHL/PTK2 in human Hep3B2.1-7 cells assessed as induction of PTK2 degradation incubated for 18 hrs in presence of Cyclosporine by protein capillary electrophoresis method; format: cell-based; conditions: hep3b
Target sequence in this assay (Q05397 whole entry): as the sequence (Q05397 whole entry) above
Target sequence in this assay (P40337 whole entry): as the sequence (P40337 whole entry) above

[5] = molecular target: T1, von Hippel-Lindau disease tumor suppressor/Focal adhesion kinase 1; experiment: Protac activity at VHL/PTK2 in human HuH-1 cells assessed as induction of PTK2 degradation incubated for 18 hrs by protein capillary electrophoresis method relative to control; format: cell-based
Target sequence in this assay (P40337 whole entry partner): as the sequence (P40337 whole entry) above
Target sequence in this assay (Q05397 2-1052 limits assumed): as the sequence (Q05397 2-1052 limits assumed) above

[6] = molecular target: T1, von Hippel-Lindau disease tumor suppressor/Focal adhesion kinase 1; experiment: Protac activity at VHL/PTK2 in human Huh-7 cells assessed as induction of PTK2 degradation incubated for 18 hrs by protein capillary electrophoresis method; format: cell-based
Target sequence in this assay (Q05397 whole entry): as the sequence (Q05397 whole entry) above
Target sequence in this assay (P40337 whole entry): as the sequence (P40337 whole entry) above

[7] = molecular target: T1, von Hippel-Lindau disease tumor suppressor/Focal adhesion kinase 1; experiment: Protac activity at VHL/PTK2 in human Hep3B2.1-7 cells assessed as induction of PTK2 degradation incubated for 18 hrs by protein capillary electrophoresis method; format: cell-based; conditions: hep3b
Target sequence in this assay (Q05397 whole entry): as the sequence (Q05397 whole entry) above
Target sequence in this assay (P40337 whole entry): as the sequence (P40337 whole entry) above

[8] = molecular target: T1, von Hippel-Lindau disease tumor suppressor/Focal adhesion kinase 1; experiment: Protac activity at VHL/PTK2 in human HuH-1 cells assessed as induction of PTK2 degradation incubated for 18 hrs by protein capillary electrophoresis method; format: cell-based
Target sequence in this assay (Q05397 whole entry): as the sequence (Q05397 whole entry) above
Target sequence in this assay (P40337 whole entry): as the sequence (P40337 whole entry) above

[9] = molecular target: T1, von Hippel-Lindau disease tumor suppressor/Focal adhesion kinase 1; experiment: Protac activity at VHL/PTK2 in human HLE cells assessed as induction of PTK2 degradation incubated for 18 hrs by protein capillary electrophoresis method relative to control; format: cell-based
Target sequence in this assay (P40337 whole entry partner): as the sequence (P40337 whole entry) above
Target sequence in this assay (Q05397 2-1052 limits assumed): as the sequence (Q05397 2-1052 limits assumed) above

[10] = molecular target: T2, Protein cereblon/Focal adhesion kinase 1 (Homo sapiens, UniProt Q05397+Q96SW2); experiment: Protac activity at CRBN/PTK2 in human Hep3B2.1-7 cells assessed as time required for maximal induction of PTK2 degradation at 3 uM incubated for up to 80 hrs by protein capillary electrophoresis method; conditions: time hrs <=80
[11] = molecular target: T2, Protein cereblon/Focal adhesion kinase 1; experiment: Protac activity at CRBN/PTK2 in human A549 cells assessed as induction of PTK2 degradation incubated for 18 hrs by protein capillary electrophoresis method; format: cell-based
Target sequence in this assay (Q05397 whole entry): as the sequence (Q05397 whole entry) above
Target sequence in this assay (Q96SW2 whole entry): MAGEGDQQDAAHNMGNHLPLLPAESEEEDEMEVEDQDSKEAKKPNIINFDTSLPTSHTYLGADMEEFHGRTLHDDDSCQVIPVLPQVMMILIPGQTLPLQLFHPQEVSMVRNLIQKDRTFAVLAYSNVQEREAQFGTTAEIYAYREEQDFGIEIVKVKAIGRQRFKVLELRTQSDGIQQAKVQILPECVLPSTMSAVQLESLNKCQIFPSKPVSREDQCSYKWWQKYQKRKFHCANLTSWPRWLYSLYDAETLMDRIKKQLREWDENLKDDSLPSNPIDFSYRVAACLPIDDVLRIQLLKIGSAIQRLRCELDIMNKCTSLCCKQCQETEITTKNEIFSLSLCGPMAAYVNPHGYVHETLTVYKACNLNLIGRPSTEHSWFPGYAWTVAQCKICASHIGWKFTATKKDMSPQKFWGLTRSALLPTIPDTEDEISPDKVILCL

[12] = molecular target: T2, Protein cereblon/Focal adhesion kinase 1; experiment: Protac activity at CRBN/PTK2 in human HepG2 cells assessed as induction of PTK2 degradation incubated for 18 hrs by protein capillary electrophoresis method; format: cell-based
Target sequence in this assay (Q05397 whole entry): as the sequence (Q05397 whole entry) above
Target sequence in this assay (Q96SW2 whole entry): as the sequence (Q96SW2 whole entry) above

[13] = molecular target: T2, Protein cereblon/Focal adhesion kinase 1; experiment: Protac activity at CRBN/PTK2 in human HLF1 cells assessed as induction of PTK2 degradation incubated for 18 hrs by protein capillary electrophoresis method relative to control; format: cell-based
[14] = molecular target: T2, Protein cereblon/Focal adhesion kinase 1; experiment: Protac activity at CRBN/PTK2 in human SNU-387 cells assessed as induction of PTK2 degradation incubated for 18 hrs by protein capillary electrophoresis method relative to control; format: cell-based
[15] = molecular target: T2, Protein cereblon/Focal adhesion kinase 1; experiment: Protac activity at CRBN/PTK2 in human Huh-7 cells assessed as induction of PTK2 degradation incubated for 18 hrs by protein capillary electrophoresis method; format: cell-based
Target sequence in this assay (Q05397 whole entry): as the sequence (Q05397 whole entry) above
Target sequence in this assay (Q96SW2 whole entry): as the sequence (Q96SW2 whole entry) above

[16] = molecular target: T2, Protein cereblon/Focal adhesion kinase 1; experiment: Protac activity at CRBN/PTK2 in human SNU-387 cells assessed as induction of PTK2 degradation incubated for 18 hrs by protein capillary electrophoresis method; format: cell-based
Target sequence in this assay (Q05397 whole entry): as the sequence (Q05397 whole entry) above
Target sequence in this assay (Q96SW2 whole entry): as the sequence (Q96SW2 whole entry) above

[17] = molecular target: T2, Protein cereblon/Focal adhesion kinase 1; experiment: Protac activity at CRBN/PTK2 in human SNU-398 cells assessed as induction of PTK2 degradation incubated for 18 hrs by protein capillary electrophoresis method; format: cell-based
Target sequence in this assay (Q05397 whole entry): as the sequence (Q05397 whole entry) above
Target sequence in this assay (Q96SW2 whole entry): as the sequence (Q96SW2 whole entry) above

[18] = molecular target: T2, Protein cereblon/Focal adhesion kinase 1; experiment: Protac activity at CRBN/PTK2 in human SNU-423 cells assessed as induction of PTK2 degradation incubated for 18 hrs by protein capillary electrophoresis method relative to control; format: cell-based

| SMILES | pDC50 [1] | pDC50 [2] | Activity [3] | pDC50 [4] | Emax [5] [%] | pDC50 [6] | pDC50 [7] | pDC50 [8] | Emax [9] [%] | TIME [10] [h] | pDC50 [11] | pDC50 [12] | Emax [13] [%] | Emax [14] [%] | pDC50 [15] | pDC50 [16] | pDC50 [17] | Emax [18] [%] |
| --- | --- | --- | --- | --- | --- | --- | --- | --- | --- | --- | --- | --- | --- | --- | --- | --- | --- | --- |
| COc1cc(C(=O)NCCOCCOCCOCC(=O)N[C@H](C(=O)N2C[C@H](O)C[C@H]2C(=O)NCc2ccc(-c3scnc3C)cc2)C(C)(C)C)ccc1Nc1ncc(C(F)(F)F)c(Oc2cccc3c2C(=O)CC3)n1 | 6.2 | 6.7 | inactive | 7.4 | 79 | 7 | 6.2 | 7.1 | 85 |  |  |  |  |  |  |  |  |  |
| COc1cc(C(=O)NCCOCCOCCOCCC(=O)Nc2cccc3c2C(=O)N(C2CCC(=O)NC2=O)C3=O)ccc1Nc1ncc(C(F)(F)F)c(Oc2cccc3c2C(=O)CC3)n1 (stereo not drawn) |  |  |  |  |  |  |  |  |  | 5 | 7.6 | 7.5 | 30 | 90 | 7.3 | 7.6 | 8.5 | 93 |
